According to patent US20090181080A1, “Oral cannabinnoid liquid formulations and methods of treatment” (Insys Therapeutics Inc., priority 2007, published 2009):

Experiment: Threshold concentration versus duration of effect analysis of Example 35 data
Assay type: in vivo, human
Procedure: In Example 38, the individual concentration-time profiles for soft gelatin capsules of Example 35 were analyzed to identify the mean duration of effect in that subject population, for a range of threshold concentrations (e.g., minimum effective concentrations). The results are depicted in FIG. 4.

[1] = 5 mg dose, by dose-proportional scaling
[2] = dose of 10 mg dronabinol, soft gelatin capsules of Example 35 data

## CCCCCc1cc(O)c2c(c1)OC(C)(C)[C@@H]1CCC(C)=C[C@@H]21 [dronabinol, Delta-9-Tetrahydrocannabinol]
[1]
  threshold concentration for a 4 hour duration of effect: approximately 0.28 ng/mL
  threshold concentration for a 6 hour duration of effect: ~0.12 ng/mL
[2]
  threshold concentration required for a 4 hour duration of effect: approximately 0.56 ng/mL
  threshold concentration required for a 6 hour duration of action: approximately 0.24 ng/mL
